Values joined by “and” are separate entries in the source; they are usually repeats but may differ in a detail not shown here. Identical values can stand only once.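 Where inhibition never reached the appropriate level, the endpoint shown equals the highest concentration tested. Otherwise, values were interpolated linearly from a five-concentration, 48-hour dose response in 96-well plates. GI50 = concentration required for 50% inhibition of growth. TGI: total growth inhibition.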
How the values were obtained:
Assay in all cases: growth of human tumour cells (NCI), 48 h
COLO 205 colon = tested on: COLO 205 colon
EKVX NSCLC = tested on: EKVX NSCLC
HCT-116 colon = tested on: HCT-116 colon
IGROV1 ovarian = tested on: IGROV1 ovarian
KM12 colon = tested on: KM12 colon
MDA-MB-231 breast = tested on: MDA-MB-231 breast
MDA-N = tested on: MDA-N
MOLT-4 leukemia = tested on: MOLT-4 leukemia
NCI-H23 lung = tested on: NCI-H23 lung
PC-3 prostate = tested on: PC-3 prostate
SF-295 CNS = tested on: SF-295 CNS
SK-MEL-28 melanoma = tested on: SK-MEL-28 melanoma
SK-OV-3 ovarian = tested on: SK-OV-3 ovarian
SNB-19 CNS = tested on: SNB-19 CNS
SW-620 colon = tested on: SW-620 colon
RPMI-8226 leukemia = tested on: RPMI-8226 leukemia
T-47D breast = tested on: T-47D breast
A498 renal = tested on: A498 renal

SMILES	TGI (COLO 205 colon) [µM]	TGI (EKVX NSCLC)	TGI (HCT-116 colon) [µM]	TGI (IGROV1 ovarian) [µM]	TGI (KM12 colon) [µM]	TGI (MDA-MB-231 breast) [µM]	TGI (MDA-N) [µM]	TGI (MOLT-4 leukemia) [µM]	TGI (NCI-H23 lung) [µM]	TGI (PC-3 prostate) [µM]	TGI (SF-295 CNS) [µM]	TGI (SK-MEL-28 melanoma) [µM]	TGI (SK-OV-3 ovarian) [µM]	TGI (SNB-19 CNS)	TGI (SW-620 colon) [µM]	TGI (RPMI-8226 leukemia) [µM]	GI50 (EKVX NSCLC) [µM]	TGI (T-47D breast) [µM]	TGI (A498 renal) [µM]
COc1ccccc1NC(=O)/C(Cc1nc2ccc([N+](=O)[O-])cc2[nH]c1=O)=N\NC(=O)C[N+](C)(C)C	> 100	> 100 µM	> 100	> 100	> 100	> 100	36	> 100	> 100	> 100	> 100	> 100	> 100	> 100 µM	> 100	–	–	–	–
CN(C)c1ccc(C=C2C(=O)OC(C)(C)OC2=O)cc1Br	> 100	> 100 µM	> 100	–	> 100	–	–	> 100	> 100	–	> 100	> 100	> 100	> 100 µM	> 100	> 100	–	–	–
COc1cc2cc(C(=O)N3CC(CCl)c4ccc(O)cc43)[nH]c2c(OC)c1OC (stereo not given)	0.0451	0.35 µM and 0.749 µM	–	–	0.0273	0.0134	–	–	0.812	–	0.00398	0.00601	–	0.453 µM and 0.21 µM	0.137	–	0.285	0.547	–
COc1ccc(NC(=O)C/C(C)=N\N=C(N)N)c([N+](=O)[O-])c1	> 100	> 100 µM	> 100	> 100	> 100	–	–	> 100	> 100	–	> 100	> 100	> 100	> 100 µM	–	> 100	–	–	> 100
O=c1cc(-c2ccccc2)[nH]c2cc(O)ccc12	32.3	> 100 µM	31.3	65.6	50.7	–	–	54.7	87.6	–	> 100	> 100	90.7	> 100 µM	31.3	37.6	–	–	> 100
CCOC(=O)/C(C(=S)Nc1ccccc1)=C(/N)N1CCCC1	> 100	> 100 µM	> 100	> 100	> 100	> 100	84.9	> 100	> 100	> 100	> 100	> 100	–	> 100 µM	> 100	> 100	–	–	> 100
COc1cc2c(c(OC)c1OC)C(=O)[C@H](O)[C@H]2NC(N)=O	> 100	> 100 µM	> 100	> 100	> 100	> 100	> 100	> 100	> 100	> 100	> 100	> 100	–	> 100 µM	> 100	> 100	–	–	–
c1ccc2c(C3NCCc4[nH]cnc43)cccc2c1 (stereo not given)	> 100	–	> 100	> 100	> 100	–	–	> 100	> 100	–	> 100	> 100	> 100	–	> 100	> 100	–	–	> 100
C=C1CC2OC2(C(=O)O[C@H]2CCC3[C@@H]4CCC5=CC(=O)CC[C@]5(C)C4CC[C@@]32C)C1=O (stereo not given in full)	15.5	48 µM	13.8	25.6	32	–	–	5.96	27.3	–	42.8	17.8	38.8	36.3 µM	11.8	5.79	–	14.2	30.6
COc1cc(OC)c(/C=C2\N=C(C)N(Nc3nnc(NN4C(=O)/C(=C/c5c(OC)cc(OC)cc5OC)N=C4C)c4ccccc34)C2=O)c(OC)c1	> 100	> 100 µM	> 100	> 100	> 100	–	–	> 100	> 100	–	> 100	> 100	–	> 100 µM	> 100	> 100	–	–	> 100
NNC(=O)c1ccc(-n2nnc(C(=O)NN)c2C(=O)NN)cc1	> 100	> 100 µM	> 100	–	> 100	> 100	> 100	> 100	> 100	> 100	> 100	> 100	–	> 100 µM	–	> 100	–	–	–
COC(=O)c1c2n(c3ccccc13)C[C@H]1OC(C)(C)O[C@@H]21	> 100	> 100 µM	> 100	> 100	> 100	> 100	–	> 100	> 100	> 100	> 100	> 100	> 100	> 100 µM	> 100	> 100	–	> 100	> 100
CNC(=O)N1CN(c2ccccc2)C2(CCN(CCCC(=O)c3ccc(F)cc3)CC2)C1=O	22.3	52.5 µM	24.6	89.1	45.9	90.3	–	33.6	87.5	> 100	31	38.4	79.9	> 100 µM	> 100	34	–	33.8	–
O=C1OC(CCCl)(c2ccccc2)CC1CN1CCOCC1 (stereo not given)	35.4	40.5 µM	–	50.1	47.7	–	–	48	23.7	–	> 100	36.9	> 100	–	39.2	27.9	–	–	> 100
C/C(=N\Nc1nc2ccccc2s1)c1ncccn1	1.19	4.54 µM	–	0.923	9.46	> 64.6	–	> 53.9	1.11	11.1	3.78	> 100	–	> 100 µM	> 69.2	–	–	> 100	> 100
COc1cccc(/C=C2/Sc3scc(-c4ccccc4)[n+]3C2=O)c1O	> 100	64.6 µM	29.2	38.9	40.4	79.2	–	49.5	38.9	> 100	> 100	40.9	70.4	67 µM	43.8	–	–	–	–

SMILES	TGI (COLO 205 colon) [µM]	TGI (EKVX NSCLC)	TGI (HCT-116 colon) [µM]	TGI (IGROV1 ovarian) [µM]	TGI (KM12 colon) [µM]	TGI (MDA-MB-231 breast) [µM]	TGI (MDA-N) [µM]	TGI (MOLT-4 leukemia) [µM]	TGI (NCI-H23 lung) [µM]	TGI (PC-3 prostate) [µM]	TGI (SF-295 CNS) [µM]	TGI (SK-MEL-28 melanoma) [µM]	TGI (SK-OV-3 ovarian) [µM]	TGI (SNB-19 CNS)	TGI (SW-620 colon) [µM]	TGI (RPMI-8226 leukemia) [µM]	GI50 (EKVX NSCLC) [µM]	TGI (T-47D breast) [µM]	TGI (A498 renal) [µM]
C=CCc1cc(OC)c2c(c1)C(O)CC(c1ccccc1)O2 (stereo not given)	> 100	> 100 µM	> 100	> 100	> 100	–	–	> 100	> 100	–	> 100	> 100	> 100	> 100 µM	> 100	–	–	–	–
Cc1cc(N(CCC#N)CCC#N)ccc1/C=C/C(=O)Nc1cccc(Cl)c1	> 100	> 100 µM	> 100	> 100	> 100	–	–	> 100	> 100	–	> 100	> 100	> 100	> 100 µM	> 100	> 100	–	–	> 100
CN(CCO)c1nc2c(c(=O)[nH]1)CCC2	> 100	> 100 µM	> 100	> 100	> 100	–	–	> 100	> 100	–	> 100	> 100	> 100	> 100 µM	> 100	> 100	–	–	–
CCOc1ccc2nc(NC(=O)c3c/c(=N\NC(=O)C[N+](C)(C)C)c4ccc(O)cc4o3)sc2c1	20.7	11.9 µM	> 29.8	8.64	19.2	–	–	5.74	7.13	–	11.1	13	25.2	17.8 µM	5.28	8.31	–	–	28
CCOC1(COP(=O)(OCc2ccccc2)OCc2ccccc2)COC(COP(=O)(OCc2ccccc2)OCc2ccccc2)(OCC)CO1 (stereo not given)	> 100	9.43 µM	> 100	> 100	> 100	–	–	> 100	> 100	–	> 100	> 100	> 100	> 100 µM	> 100	> 100	–	–	–
CN(C)CCCNC(=O)N/N=C/c1cccc([N+](=O)[O-])c1	–	–	> 100	> 100	> 100	–	–	> 100	> 100	–	> 100	> 100	> 100	> 100 µM	> 100	–	–	–	–
CCO[C@]12C[C@H](OC)[C@@]3(O)CC(C1[C@H]3OCc1ccccc1)C13C4C2[C@H](OC)C1[C@](COC)(CN4CC)[C@H](O)C[C@@H]3OC (stereo not given in full)	> 100	> 100 µM	> 100	> 100	–	–	–	> 100	> 100	–	–	> 100	> 100	> 100 µM	> 100	> 100	–	–	–
Cn1c(/C=C(\O)c2ccc(Cl)cc2)nc2ccccc21	> 100	84.8 µM	> 100	> 100	> 100	–	–	> 100	> 100	–	> 100	> 100	–	> 100 µM	> 100	> 100	–	–	–
CCOC(=O)C1=C(O)C(=O)c2ccsc2C1=O	> 100	> 100 µM	> 100	> 100	> 100	–	–	> 100	> 100	–	> 100	> 100	> 100	> 100 µM	> 100	> 100	–	–	> 100
CC12NN=NC1C(=O)NC2=O (stereo not given)	> 100	> 100 µM	> 100	> 100	> 100	–	–	> 100	> 100	–	> 100	> 100	> 100	> 100 µM	> 100	> 100	–	–	> 100
CC(=O)C1=CSC2[C@H](NC(=O)Cc3ccccc3)C(=O)N2C1C(=O)OC(c1ccccc1)c1ccccc1 (stereo not given in full)	> 100	> 100 µM	> 100	> 100	> 100	–	–	> 100	> 100	–	> 100	> 100	> 100	> 100 µM	> 100	> 100	–	–	> 100
O=c1cc(-c2cccc(Cl)c2)[nH]c2ncccc12	–	> 100 µM	1.17	> 58.9	> 100	–	0.0374	> 24.8	> 100	0.0694	0.438	> 100	> 100	24.1 µM	> 100	–	–	–	> 100
Cc1cc2c(C)n(Cc3ccc(Cl)cc3Cl)nc2c(C#N)c1C	> 100	> 100 µM	> 100	> 100	> 100	–	–	> 100	> 100	–	60.9	> 100	47.4	45.7 µM	> 100	> 100	–	–	> 100
CSCC1CC(c2ccc(Cl)cc2)=NO1 (stereo not given)	> 100	> 100 µM	> 100	> 100	> 100	–	–	> 100	> 100	–	> 100	> 100	> 100	–	> 100	> 100	–	–	> 100
CCOC(=O)CSc1nc(-c2ccccc2)c(C#N)c(=O)[nH]1	> 100	> 100 µM	> 100	> 100	> 100	> 100	–	> 100	> 100	> 100	> 100	> 100	> 100	> 100 µM	> 100	> 100	–	> 100	> 100
CCOC(=O)C1=C(NC)OC/C1=N\NC(=O)c1ccccc1O	> 100	> 100 µM	58.3	> 100	> 100	–	–	> 100	54.9	–	> 100	> 100	> 100	> 100 µM	> 100	> 100	–	–	> 100
